Experimental data taken from US5071965A, “Novel TC-99M complexes” (Mallinckrodt Medical, Inc., priority 1989, dated 1991).
Where two headings read alike, the source gives them in different places.

Legend:
[1] = literature, Green et al. 1985; cited from earlier work
[2] = in vivo; cited from earlier work
[3] = rat, in vivo; cited from earlier work
[4] = in vivo, 5 min
Protocol: (§1) The procedures used for determining biodistribution are as follows.
(§2) Guinea Pigs--The guinea pigs are anesthetized and the technetium complex is injected into the jugular vein after a cutdown. The animals are sacrificed after 5 minutes and the organs removed and counted as with the rats.
(§3) For guinea pigs, significant heart uptake is determined if the percentage of technetium in the heart is greater than 0.5% and the heart/blood ratio is greater than 1.

[5] = Biodistribution of Tc-99m complexes in guinea pigs (heart uptake, heart/blood); details: 5 minutes, Tc-99m complex; for 5 Minute Guinea Pig % HT Uptake: jugular vein injection
Protocol: as §1, §2, §3

| Molecule | 5 Minute Guinea Pig % HT Uptake [5] [%] | also measured |
| --- | --- | --- |
| COc1ccc(O)c(C=NCC(C)(CN=Cc2cc(OC)ccc2O)CN=Cc2cc(OC)ccc2O)c1 (stereo not drawn) [1,1,1-tris (5-methoxysalicyl-aldiminomethyl) ethane] |  | overall charge [1]: no overall charge; washout from the heart (images of a dog's heart) [2]: washed out quickly from the heart; washout from the heart (biodistribution data in rats) [3]: washed out quickly from the heart |
| CC(=NCC(C)(CN=C(C)c1cc(F)ccc1O)CN=C(C)c1cc(F)ccc1O)c1cc(F)ccc1O (stereo not drawn) [R5=H, R6=H, R7=F, R8=H, R3=CH3, R4=CH3, 1',1',1'-tris(5-fluoro-2-hydroxyacetophenoiminemethyl)ethane] |  | 5 Minute Guinea Pig % HT Uptake [4]: 0.66% |
| Oc1ccccc1C=NCC(CN=Cc1ccccc1O)(CN=Cc1ccccc1O)COCc1ccccc1 (stereo not drawn) [phenol, 2,2'-[[2-[[[(2-hydroxyphenyl)methylene]amino]methyl]-2-phenylmethoxymethyl-1,3-propanediyl]bis(nitrilomethylidyne)]bis-] | 1.60 |  |
| C=CCOCC(CN=Cc1ccccc1O)(CN=Cc1ccccc1O)CN=Cc1ccccc1O (stereo not drawn) [phenol, 2,2'-[[2-[[[(2-hydroxyphenyl)methylene]amino]methyl]-2-propenyloxymethyl-1,3-propanediyl]bis(nitrilomethylidyne)]bis-] | 1.09 |  |
| CCCOCC(CN=Cc1ccccc1O)(CN=Cc1ccccc1O)CN=Cc1ccccc1O (stereo not drawn) [phenol, 2,2'-[[2-[[[(2-hydroxyphenyl)methylene]amino]methyl]-2-propoxymethyl-1,3-propanediyl]bis(nitrilomethylidyne)]bis-] | 1.48 | Guinea Pig Heart/Blood Ratio [5]: 18 |
| CCC(=NCC(C)(CN=C(CC)c1ccccc1O)CN=C(CC)c1ccccc1O)c1ccccc1O (stereo not drawn) [phenol, 2,2'-[[2-[[[(2-hydroxyphenyl)propylene]amino]methyl]-2-methyl-1,3-propanediyl]bis(nitrilopropylidyne)]bis-] | 0.76 |  |
| Oc1ccccc1C=NCC(CN=Cc1ccccc1O)(CN=Cc1ccccc1O)COc1cccc2ccccc12 (stereo not drawn) [phenol, 2,2'[[2-[[[(2-hydroxyphenyl)methylene]amino]methyl]-2-α-napthoxymethyl-1,3-propanediyl]bis(nitrilomethylidyne)]bis-] | 0.72 |  |
| CCCCCCOCC(CN=Cc1ccccc1O)(CN=Cc1ccccc1O)CN=Cc1ccccc1O (stereo not drawn) [phenol, 2,2,'-[[2-[[[(2-hydroxyphenyl)methylene]amino]methyl]-2-hexyloxymethyl-1,3-propanediyl]bis(nitrilomethylidyne)]bis-] | 1.19 |  |
| phenol, 2,2'-[[2-[[[(2-hydroxyphenyl)methylene]amino]methyl]-2-(4-methoxy-4-methyl)pentyl-1,3-propanediyl]bis(nitrilomethylidyne)]bis- | 1.61 |  |
